Values quoted from earlier work in patent US10617673B2, “Cannabinoid receptor antagonists/inverse agonists useful for treating metabolic disorders, including obesity and diabetes” (Jenrin Discovery, LLC, priority 2012, dated 2020).

Conditions: type 2 diabetes patients not on other anti-diabetic medications, after six months, baseline value 7.9

Cc1c(C(=O)NN2CCCCC2)nn(-c2ccc(Cl)cc2Cl)c1-c1ccc(Cl)cc1 [rimonabant]
HbA1c levels lowered: 0.8%
